Results reported in patent US20120252796A1, “COMPOUNDS FOR THE TREATMENT OF DYSLIPIDEMIA AND RELATED DISEASES” (priority 2009, published 2012).

Key:
PCSK9 [1] = biological target: T1, PCSK9 (Homo sapiens, UniProt Q8NBP7); test: PCSK9-LDLR in vitro Binding Assay (ELISA)
Description: The PCSK9-LDLR in vitro Binding Assay is a quantitative solid phase binding assay between PCSK9 and recombinant LDLR. Plates were pre-coated with a recombinant LDLR-AB domain, which binds PCSK9. Test compound at different concentration was added to the PCSK9 and added to LDLR immobilized on the wells. The amount of bound PCSK9 is measured by binding it with biotinylated anti-His-tag monoclonal antibody, followed by binding with horseradish peroxidase conjugated streptavidin substrate. The color was quantified by ELISA reader at […] which reflects the relative amount of PCSK9 that binds to LDLR in presence and absence of the inhibitor. EC50 values were calculated by nonlinear regression analysis using graph pad prism software. Each concentration point represents values in duplicates.
Target sequence in this assay (Q8NBP7 153-692): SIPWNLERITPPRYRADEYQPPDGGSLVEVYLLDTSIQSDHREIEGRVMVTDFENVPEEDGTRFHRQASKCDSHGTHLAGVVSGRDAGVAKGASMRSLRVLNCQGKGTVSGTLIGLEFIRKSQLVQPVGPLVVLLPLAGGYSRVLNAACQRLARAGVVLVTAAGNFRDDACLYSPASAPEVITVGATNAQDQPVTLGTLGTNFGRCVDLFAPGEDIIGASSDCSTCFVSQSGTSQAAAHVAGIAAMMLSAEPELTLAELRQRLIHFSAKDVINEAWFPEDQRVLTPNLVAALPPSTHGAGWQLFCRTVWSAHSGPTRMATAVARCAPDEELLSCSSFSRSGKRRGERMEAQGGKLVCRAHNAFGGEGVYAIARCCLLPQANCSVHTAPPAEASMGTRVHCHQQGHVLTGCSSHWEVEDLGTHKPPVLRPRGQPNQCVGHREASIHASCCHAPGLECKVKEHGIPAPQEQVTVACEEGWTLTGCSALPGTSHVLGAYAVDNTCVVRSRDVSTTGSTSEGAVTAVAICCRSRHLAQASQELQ
Target sequence in this assay (Q8NBP7 31-152 partner limits assumed): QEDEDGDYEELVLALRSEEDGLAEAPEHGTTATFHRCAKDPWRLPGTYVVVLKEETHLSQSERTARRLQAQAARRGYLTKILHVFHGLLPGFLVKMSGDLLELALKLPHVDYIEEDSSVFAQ

[2] = system: LPS induced dyslipidemia model C57 mice; test: LDL-C lowering activity in LPS induced dyslipidemia model C57 mice; assay type: in vivo; conditions: male C57 mice, i.p. or oral, 24 hours after LPS, vs Vehicle group
Description: Male C57 mice of 7-10 week age are grouped based on non-fasting LDL-C levels, on next day these mice were administered with Vehicle or test compounds (i.p. or oral) and 30 min after compound administration lipolysaccharide (LPS) was administered. After LPS administration all animals were kept on fasting for 24 hours, after that animals were bled and LDL-C was measured. The percent change in LDL-C in test compound group Vs Vehicle group was calculated.

PCSK9 [3] = biological target: T1, PCSK9; test: SPR binding studies (BIACORE3000); conditions: 25° C., phosphate buffer pH 7.4; compounds run at 10 nM, 100 nM and 1 micro mole, concentration of the value not stated
Description: Instrumentation: BIACORE3000 from GE Life Sciences was used and the Interaction analysis was performed at 25° C.
Buffers: phosphate buffer pH 7.4 supplied by Biacore supplemented with 0.01% dimethyl sulfoxide (DMSO) was used as running buffer during the assay.
Immobilization of Ligand: Sensor chip CM5 was used for analysis. The sensor chip consists of a carboxymethyl-modified dextran polymer linked to a gold-covered glass support. The ligand was diluted to 10 micro gram/ml in 10 mM sodium acetate, pH5.0 and immobilized to the sensor chip, using amine coupling. Running buffer without DMSO was used during immobilization. The surface was activated by injecting a solution containing 0.2M N-ethyl-N′-dimethyl aminopropyl-carbodiimide (EDC) and 50 mM N-hydroxy succinimide (NHS). The system was set for Aim for immobilization of about 1000 RU and the surface was blocked by injecting 1 Mehanolamine at pH 8.5. Then the surface was washed with 50 mM NaOH by injecting two 30 second-pulses to remove off non covalently bound ligand and to stabilize the baseline (automated procedure). Activated dextran was used as a reference surface. To ensure highest sensitivity the SPR Detector response was normalized before running the assay. By calibrating the detector at various light intensities under Conditions of total internal reflection (automated procedure). Solvent correction for DMSO was also carried to minimize the error in data.
Assay Design: A binding assay was set up for different compounds at three different concentrations (10 nM, 100 nM and 1 micro mole), and were injected over the reference and Ligand flow cells at a flow rate of 30 micro liter/min. Each cycle consisted of a 1-min waiting period for monitoring of the baseline stability and 3 minute injection of compound with a 5 minute Undisturbed dissociation phase, and the surface was regenerated with 50 mM NaoH solution. Compound responses in the reference flow cell were subtracted with that of ligand and a solvent correction run was carried in between and the binding potential of the compounds was reported as relative response units (RU).
Target sequence in this assay (Q8NBP7 153-692): as the sequence (Q8NBP7 153-692) above

[4] = system: HF-HC diet fed Syrian golden hamsters; test: Lipid lowering effect in HF-HC diet fed hamster model; assay type: in vivo; parameters: concentration or dose not given beside the values; conditions: oral gavage once daily, day 14
Description: In this experiment, Syrian golden hamsters which were kept on high fat—high cholesterol (HF-HC) fructose diet for 2 weeks were divided into various groups based on LDL-C and Total cholesterol levels. The treatment was given by oral gavages once daily for 14 days. The blood was collected by retro-orbital sinus puncture method under light ether anesthesia on day 0 (pretreatment), and day 14 of the treatment for lipid levels measurements. The percent change in LDL-C in compound group Vs Vehicle group was calculated.

high fat diet C57 mice = test: LDL-C lowering activity in high fat diet C57 mice; assay type: in vivo; conditions: C57 mice on high fat diet, orally once a day, 4-6 week treatment
Description: The in-vivo LDL-c lowering for test compound was tested in C57 mice which were kept on high fat diet for 4 weeks and the blood was collected by retro-orbital sinus puncture method under light ether anesthesia on day 0 (pretreatment), animal are grouped based on LDL-C levels, after that 4-6 week treatment with vehicle or test compound orally once a day was given. On completion of treatment on day 28 day and or on day 42 of the treatment the blood was collected for LDL-C levels measurement. The percent change in LDL-C in test compound group Vs Vehicle group was calculated.

inhibition at 1 µM (PCSK9 [1]; Concentration 1 μM) [%]	inhibition at 10 µM (PCSK9 [1]; Concentration 10 μM) [%]	inhibition at 100 µM (PCSK9 [1]; Concentration 100 μM) [%]	Relative response (RU) (PCSK9 [3])	% Inhibition PCSK9 (PCSK9 [1]; Concentration 10 μM) [%]	% Inhibition PCSK9 (PCSK9 [1]; Concentration 100 μM) [%]	Molecule	% Change in LDL-C [2] [%]	other results
20	16	49				Cc1nc(-c2ccc(C(F)(F)F)cc2)sc1CC1COC(C)(C(=O)N2CCOCC2)OC1 (stereo not shown) [Example 93, (2-methyl-5-((4-methyl-2-(4-(trifluoromethyl)phenyl)thiazol-5-yl)methyl)-1,3-dioxan-2-yl)(morpholino)methanone]	−46.0 ± 6.2	
			2.23			Cc1oc(-c2ccncc2)nc1CC1COC(C)(C(=O)NCC2CCOCC2)OC1 (stereo not shown) [Example 84, 2-methyl-5-c-((5-methyl-2-(pyridin-4-yl)oxazol-4-yl)methyl)-N—((tetrahydro-2H-pyran-4-yl)methyl)-1,3-dioxane-2-carboxamide]	−25.8 ± 8.6	% Inhibition PCSK9 (PCSK9 [1]; Concentration 1 μM, 1 µM): 25%; % Inhibition PCSK9 (PCSK9 [1]; Concentration 10 μM, 10 µM): 29%; % Inhibition PCSK9 (PCSK9 [1]; Concentration 100 μM, 100 µM): 65%
20	25	11				Cc1oc(-c2ccccc2)nc1CCC1COC(C)(C(=O)N2CCOCC2)OC1 (stereo not shown) [Example 40, (2-methyl-5-(2-(5-methyl-2-phenyloxazol-4-yl)ethyl)-1,3-dioxan-2-yl)(morpholino)methanone]	−34.1 ± 5.7	
8	12	32				Cc1nc(-c2ccc(C(F)(F)F)cc2)sc1CC1COC(C)(C(=O)NO)OC1 (stereo not shown) [Example 91, N-hydroxy-2-methyl-5-((4-methyl-2-(4-(trifluoromethyl)phenyl)thiazol-5-yl)methyl)-1,3-dioxane-2-carboxamide]	−37.4 ± 8.8	
			2.64			Cc1oc(-c2ccncc2)nc1CC1COC(C)(C(=O)NO)OC1 (stereo not shown) [Example 80, N-hydroxy-2-methyl-5-c-((5-methyl-2-(pyridin-4-yl)oxazol-4-yl)methyl)-1,3-dioxane-2-carboxamide]		% Inhibition PCSK9 (PCSK9 [1]; Concentration 1 μM, 1 µM): 32%; % Inhibition PCSK9 (PCSK9 [1]; Concentration 10 μM, 10 µM): 44%; % Inhibition PCSK9 (PCSK9 [1]; Concentration 100 μM, 100 µM): 34%
				26	40	1-(2-methyl-5-((4-methyl-2-(4-(trifluoromethyl)phenyl)thiazol-5-yl)methyl)-1,3-dioxan-2-yl)-N—((tetrahydro-2H-pyran-4-yl)methyl)methanamine [Example 92]	−35.8 ± 10.5	% Inhibition PCSK9 (PCSK9 [1]; Concentration 1 μM): 11%

Continued, molecule first:

Molecule	inhibition at 1 µM (PCSK9 [1]; Concentration 1 μM) [%]	inhibition at 10 µM (PCSK9 [1]; Concentration 10 μM) [%]	inhibition at 100 µM (PCSK9 [1]; Concentration 100 μM) [%]	Relative response (RU) (PCSK9 [3])	% Inhibition PCSK9 (PCSK9 [1]; Concentration 10 μM) [%]	% Inhibition PCSK9 (PCSK9 [1]; Concentration 100 μM) [%]	% Change in LDL-C [2] [%]	other results
Cc1ccc(-c2nc(CC3COC(C)(C(=O)NCC4CCOCC4)OC3)c(C)o2)cc1 (stereo not shown) [Example 63, 2-methyl-5-c-((5-methyl-2-(p-tolyl)oxazol-4-yl)methyl)-N—((tetrahydro-2H-pyran-4-yl)methyl)-1,3-dioxane-2-carboxamide]							−9.0 ± 10.0	% Inhibition PCSK9 (PCSK9 [1]; Concentration 1 μM, 1 µM): 39%; % Inhibition PCSK9 (PCSK9 [1]; Concentration 10 μM, 10 µM): 40%; % Inhibition PCSK9 (PCSK9 [1]; Concentration 100 μM, 100 µM): 51%
Cc1oc(-c2ccccc2)nc1CC1COC(C)(C(=O)NO)OC1 (single isomer, unassigned) [Example 4, N-(Hydroxy)-2-methyl-5-((5-methyl-2-phenyloxazol-4-yl)methyl)-1,3-dioxane-2-carboxamide]		35	42	5.13			−29.4 ± 4.1	% Change Vs Vehicle Control HDL-C [4]: −25%; % Change Vs Vehicle Control LDL-C [4]: −24%; % Change Vs Vehicle Control TC [4]: −27%; % Change Vs Vehicle Control TG [4]: −35%; % Change Vs Vehicle Control HDL-C (high fat diet C57 mice): −5%; % Change Vs Vehicle Control LDL-C (high fat diet C57 mice): −24%; % Change Vs Vehicle Control TC (high fat diet C57 mice): −14%; % Change Vs Vehicle Control TG (high fat diet C57 mice): −35%
Cc1oc(-c2ccccc2)nc1CC1COC(C)(C(=O)NO)OC1 (single isomer, unassigned) [Example 7, N-hydroxy-2-methyl-5-t-((5-methyl-2-phenyloxazol-4-yl)methyl)-1,3-dioxane-2-carboxamide]					12	20		% Inhibition PCSK9 (PCSK9 [1]; Concentration 1 μM): 11%; % Change Vs Vehicle Control HDL-C [4]: −20.1%; % Change Vs Vehicle Control LDL-C [4]: −29.3%; % Change Vs Vehicle Control TC [4]: −29.6%; % Change Vs Vehicle Control TG [4]: −26.7%
N-hydroxy-2-methyl-5-(2-(5-methyl-2-phenyloxazol-4-yl)ethyl)-1,3-dioxane-2-carboxamide [Example 34]				1.95	12	15		% Inhibition PCSK9 (PCSK9 [1]; Concentration 1 μM): 11%; % Change Vs Vehicle Control HDL-C [4]: −10.3%; % Change Vs Vehicle Control LDL-C [4]: −38.2%; % Change Vs Vehicle Control TC [4]: −32.6%; % Change Vs Vehicle Control TG [4]: 2.2%
Cc1oc(-c2ccccc2)nc1CCC1COC(C)(C(=O)NCC2CCOCC2)OC1 (stereo not shown) [Example 37, 2-methyl-5-(2-(5-methyl-2-phenyloxazol-4-yl)ethyl)-N—((tetrahydro-2H-pyran-4-yl)methyl)-1,3-dioxane-2-carboxamide]	24	15	20				−35.4 ± 8.3	
Cc1oc(-c2ccccc2)nc1CC1COC(C)(C(=O)NCC2CCOCC2)OC1 (stereo not shown) [Example 8, 2-methyl-5-((5-methyl-2-phenyloxazol-4-yl)methyl)-N—((tetrahydro-2H-pyran-4-yl)methyl)-1,3-dioxane-2-carboxamide]	18	23	30				−33.5 ± 5.4	
Cc1oc(-c2ccccc2)nc1CC1COC(C)(C(=O)N2CCOCC2)OC1 (stereo not shown) [Example 12, (2-methyl-5-c-((5-methyl-2-phenyloxazol-4-yl)methyl)-1,3-dioxan-2-yl)(morpholino)methanone]					19	18	−40 ± 10.0	
Cc1oc(-c2ccccc2)nc1CC1COC(C)(C(=O)N2CCN(C)CC2)OC1 (stereo not shown) [Example 14, (2-methyl-5-c-((5-methyl-2-phenyloxazol-4-yl)methyl)-1,3-dioxan-2-yl)(4-methylpiperazin-1-yl)methanone]				15.81	41	5		
